We go through 9 molecules from patent publication EP4818172A1, “ASCORBIC ACID DERIVATIVES AND COSMETIC CONTAINING SAME” (Seiwa Kasei Co., Ltd., priority 2023, dated 2025).

Data set [1] deals with Normal human dermal fibroblasts (NHDF). The data set can be described thus: Hyaluronic acid production promoting effect (ELISA of supernatant). Format: cell-based. The following applies: sample at 10 mM or less in serum-free D-MEM, cultured 48 hours, % of control group (100%), N=3. The essentials: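 NHDF pre-incubated 24 h in D-MEM/5% FBS, then exposed to samples (10 mM or less) in serum-free D-MEM for 48 h. Supernatant hyaluronic acid measured by ELISA, triplicate. Output expressed as % of untreated control (control = 100%), graded ±/+/++ at <100%, 100-120%, >120%.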
In general terms: In an ELISA, binding on a coated surface is turned into a signal by an enzyme label.

Data set [2] deals with Normal human epidermal keratinocytes. In words: Antioxidant effect: ROS production inhibition after H2O2 (DCFHDA probe). Format: cell-based. The note with it: sample at 10 mM or less, 24 hours, then 0.2 mM H2O2 for 2 hours, N=4. On the procedure: Normal human epidermal keratinocytes were seeded onto a 96-well plate using KG2 medium at a cell density of 2.0 × 10^4 cells/well. After 24 hours of pre-incubation, samples adjusted to a predetermined concentration in KG2 medium were added to each well. After 24 hours of incubation, the medium was removed, followed by washing with HBSS(-) and the incorporation of the ROS-reactive fluorescent probe DCFHDA for 30 minutes. The cells were again washed with HBSS(-), treated with 0.2 mM H2O2, and incubated for 2 hours. The fluorescence intensity was measured, and the amount of ROS produced per unit protein was calculated by dividing the fluorescence intensity by the amount of protein quantified by the BCA method, resulting in an analytical value of 1. Furthermore, the amount of ROS production calculated without adding the sample adjusted to a predetermined concentration using the above test method was set to analytical value 2; and the amount of ROS production calculated without adding the sample or 0.2 mM H2O2 was set to analytical value 3.
ROS production inhibition rate (%) was calculated using the following formula. The higher the ROS production inhibition rate, the greater the antioxidant effect can be evaluated to be.
ROS production inhibition rate (%) = [(analysis value 2) - (analysis value 1)] / [(analysis value 2) - (analysis value 3)] × 100
The ROS production inhibition rate when the sample was measured at a concentration of 10 mM or less was evaluated as follows. Note that the measurement was performed in N=4. • <20%: + • 20-40%: ++ • 40%<: +++ [Table 21]

Data set [3] in a line: Stability test -1: residual rate of 1% aqueous solutions at pH 3 to 9 on storage. The following applies: 1% aqueous solution. Format: physicochemical.
The nature of data set [4]: Stability test -1: odor and coloration scored by 10 panelists. The data set is classed as physicochemical. The following applies: Test Example 1, aqueous solution, total score of 10 panelists. On the procedure: For each of the samples of Synthesis Examples 1 to 6, 1% aqueous solutions were adjusted to pH 3, 5, 7, 8, and 9 with a dilute potassium hydroxide aqueous solution, and then placed in 50 mL screw tubes and • 2: Color changes compared to immediately after preparation. • 1: Strongly colored compared to immediately after preparation. Based on the results of the above evaluation, the following classification was made: • ○: Total score of 10 panelists is 25 or more • △: Total score of 10 panelists is 16-24 • ×: The total score of 10 panelists is 15 or less [Table 10]

Data set [5] has as its system Normal human dermal fibroblasts. The data set can be described thus: Collagen production promoting effect (ELISA of free collagen in supernatant). The data set is classed as cell-based. The note with it: sample at 10 mM or less, cultured 48 hours, % of control group (100%), N=3. On the procedure:
Normal human dermal fibroblasts were prepared in D-MEM containing 5% (v/v) fetal bovine serum to a cell density of 2.5 × 10^4 cell s /well, and then pre-incubated for 24 hours on a 96-well plate. After removing the medium, samples prepared to a predetermined concentration in D-MEM containing 5% (v/v) fetal bovine serum were added to each well and cultured for 48 hours. After the culture was completed, the amount of free collagen in the supernatant was quantified by ELISA. Measurements were performed in triplicate (N=3).
The amount of collagen produced when the sample was measured at a concentration of 10 mM or less was compared with that of the control group, and the results (% values when the control group was set to 100%) are shown in Table 17 based on the following criteria. • <100%: ± • 100-140%: + • 140%<: ++ [Table 17]

The nature of data set [6]: Stability test -2: residual rate in cream of pH 7 or 9 stored at 50°C. Format: physicochemical. The following applies: cream with 4.0 W/W% derivative. In a few lines: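 Each derivative was formulated into a cream by heating and mixing two component phases, cooling, then adding a third component, giving a final pH of 7 or 9. The creams were kept at 50°C for up to 4 weeks, and the remaining amount of derivative was measured to give a residual rate.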

Data set [7] can be described thus: Stability test -2: odor and coloration of cream stored at 50°C. Format: physicochemical. The note with it: Test Example 2, cream stored at 50°C, total score of 10 panelists. The essentials:
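Creams at pH 7 or 9 containing the test samples stored at 50°C for 4 weeks. Odor and coloration scored by 10 panelists against the freshly prepared cream; total scores classed as ○ (25 or more), △ (16-24) or × (15 or less).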

Molecules are shown by their SMILES.

As to `O=C1OC2C(O)COC23OCCCCOC13` (stereo not shown) [synthesis Example 33, 4-hydroxy-2,6,9,14-tetraoxatricyclo [6.6.0.0^1.5] tetradecan-7-one], in data set [1], the “Hyaluronic acid production-promoting effect” value is “+ (100-120%)”. In data set [2], the “Antioxidant effect (ROS production inhibition rate)” value was “++ (20-40%)”.

Consider `O=C1OC(C(O)CO)C2=C1OCCCO2` (stereo not shown) [synthesis example 2, 2,3-O-(1,3-propanediyl) ascorbic acid], for which, in data set [3] (pH3, stored at 50°C), the “Residual Rate After 2 weeks” value is “⊚” and the “Residual Rate After 4 weeks” value was “⊚”. Moreover, in data set [3] (pH5, stored at 50°C), the “Residual Rate After 2 weeks” value was “⊚” and the “Residual Rate After 4 weeks” value is “⊚”. Further, in data set [3] (pH7, stored at 50°C), the “Residual Rate After 2 weeks” value was “⊚” and the “Residual Rate After 4 weeks” value was “⊚”. In data set [3] (pH8, stored at 50°C), the “Residual Rate After 2 weeks” value is recorded as “⊚” and the “Residual Rate After 4 weeks” value is recorded as “○”. In data set [3] (pH9, stored at 50°C), the “Residual Rate After 2 weeks” value is on record as “○” and the “Residual Rate After 4 weeks” value is “Δ”. In data set [4], the “Coloration After 2 weeks” value is recorded as “○ (Total score of 10 panelists is 25 or more)”, the “Odor After 2 weeks” value was “○ (Total score of 10 panelists is 25 or more)”, the “Coloration After 4 weeks” value is “○ (Total score of 10 panelists is 25 or more)” and the “Odor After 4 weeks” value was “Δ”. Besides, the Collagen production-promoting effect result in data set [5] was “++ (140%<)”. Also, the “Hyaluronic acid production-promoting effect” value in data set [1] is “++ (120%<)”.

As to `O=C1OC2C(O)COC23OCCCOC13` (stereo not shown) [synthesis Example 34, 4-hydroxy-2,6,9,13-tetraoxatricyclo [6.5.0.0^1.5] tridecan-7-one], in data set [1], the “Hyaluronic acid production-promoting effect” value is recorded as “+ (100-120%)”. Also, in data set [2], the “Antioxidant effect (ROS production inhibition rate)” value is “++ (20-40%)”.

Regarding `O=C1OC(C(O)CO)C2=C1OCCO2` (stereo not shown) [synthesis example 1, 2,3-O-(1,2-ethanediyl) ascorbic acid], in data set [3] (pH3, stored at 50°C), the “Residual Rate After 2 weeks” value was “⊚” and the “Residual Rate After 4 weeks” value is recorded as “⊚”. Moreover, in data set [3] (pH5, stored at 50°C), the “Residual Rate After 2 weeks” value is on record as “⊚” and the “Residual Rate After 4 weeks” value is on record as “⊚”. For the same molecule, in data set [3] (pH7, stored at 50°C), the “Residual Rate After 2 weeks” value is given as “○” and the “Residual Rate After 4 weeks” value was “Δ”. In data set [3] (pH8, stored at 50°C), the “Residual Rate After 2 weeks” value was “Δ” and the “Residual Rate After 4 weeks” value is on record as “×”. Besides, in data set [3] (pH9, stored at 50°C), the “Residual Rate After 2 weeks” value is “×” and the “Residual Rate After 4 weeks” value is on record as “×”. Besides, in data set [4], the “Coloration After 2 weeks” value was “○ (Total score of 10 panelists is 25 or more)”, the “Odor After 2 weeks” value is “○ (Total score of 10 panelists is 25 or more)”, the “Coloration After 4 weeks” value was “Δ” and the “Odor After 4 weeks” value is reported as “○ (Total score of 10 panelists is 25 or more)”. Besides, in data set [5], the Collagen production-promoting effect entry was “+ (100-140%)”. Besides, the “Hyaluronic acid production-promoting effect” value in data set [1] was “+ (100-120%)”.

For the molecule `CCCCCCCCCCCC(=O)OCC(OC(=O)CCCCCCCCCCC)C1OC(=O)C2=C1OCCCCO2` (stereo not shown) [synthesis example 14, 5,6-O-dilauroyl-2,3-O-(1,4-butanediyl) ascorbic acid], in data set [6] (pH7, stored at 50°C), the “Residual Rate After 2 weeks” value is recorded as “⊚ (95% or more)” and the “Residual Rate After 4 weeks” value is “⊚ (95% or more)”. For the same molecule, in data set [6] (pH9, stored at 50°C), the “Residual Rate After 2 weeks” value was “⊚ (95% or more)” and the “Residual Rate After 4 weeks” value is on record as “○ (85% or more, less than 95%)”. Also, in data set [7], the “Coloration After 2 weeks” value is on record as “○ (Total score of 10 panelists is 25 or more)”, the “Odor After 2 weeks” value is listed as “○ (Total score of 10 panelists is 25 or more)”, the “Coloration After 4 weeks” value is reported as “○ (Total score of 10 panelists is 25 or more)” and the “Odor After 4 weeks” value was “Δ”. Besides, in data set [1], the “Hyaluronic acid production-promoting effect” value is given as “++ (120%<)”. Besides, in data set [2], the “Antioxidant effect (ROS production inhibition rate)” value is “+ (<20%)”.

Regarding `O=C1OC(C(O)CO)C2=C1OCC(O)CO2` (stereo not shown) [synthesis example 4, 2,3-O-(2-hydroxypropane-1,3-diyl) ascorbic acid], in data set [3] (pH3, stored at 50°C), the “Residual Rate After 2 weeks” value is “⊚” and the “Residual Rate After 4 weeks” value is listed as “⊚”. Moreover, in data set [3] (pH5, stored at 50°C), the “Residual Rate After 2 weeks” value was “⊚” and the “Residual Rate After 4 weeks” value is “⊚”. Further, in data set [3] (pH7, stored at 50°C), the “Residual Rate After 2 weeks” value was “○” and the “Residual Rate After 4 weeks” value is reported as “○”. In data set [3] (pH8, stored at 50°C), the “Residual Rate After 2 weeks” value was “○” and the “Residual Rate After 4 weeks” value is given as “Δ”. In data set [3] (pH9, stored at 50°C), the “Residual Rate After 2 weeks” value is listed as “○” and the “Residual Rate After 4 weeks” value was “Δ”. Moreover, in data set [4], the “Coloration After 2 weeks” value is on record as “○ (Total score of 10 panelists is 25 or more)”, the “Odor After 2 weeks” value is on record as “○ (Total score of 10 panelists is 25 or more)”, the “Coloration After 4 weeks” value is recorded as “○ (Total score of 10 panelists is 25 or more)” and the “Odor After 4 weeks” value is listed as “○ (Total score of 10 panelists is 25 or more)”. Moreover, the Collagen production-promoting effect entry in data set [5] is “+ (100-140%)”. In addition, the “Hyaluronic acid production-promoting effect” value in data set [1] is “++ (120%<)”.

Regarding `CCCCCCCCCCCC(=O)OCC(O)C1OC(=O)C2=C1OCCCCO2` (stereo not shown) [synthesis example 13, 6-O-lauroyl-2,3-O-(1,4-butanediyl) ascorbic acid], in data set [6] (pH7, stored at 50°C), the “Residual Rate After 2 weeks” value is recorded as “⊚ (95% or more)” and the “Residual Rate After 4 weeks” value is on record as “⊚ (95% or more)”. In addition, in data set [6] (pH9, stored at 50°C), the “Residual Rate After 2 weeks” value was “⊚ (95% or more)” and the “Residual Rate After 4 weeks” value was “⊚ (95% or more)”. Also, in data set [7], the “Coloration After 2 weeks” value was “○ (Total score of 10 panelists is 25 or more)”, the “Odor After 2 weeks” value is “○ (Total score of 10 panelists is 25 or more)”, the “Coloration After 4 weeks” value is listed as “○ (Total score of 10 panelists is 25 or more)” and the “Odor After 4 weeks” value is reported as “Δ”. In addition, the “Hyaluronic acid production-promoting effect” value in data set [1] is listed as “++ (120%<)”. Further, the “Antioxidant effect (ROS production inhibition rate)” value in data set [2] is “+ (<20%)”.

For `O=C1O[C@H]([C@@H](O)CO)C(OCC(O)CO)=C1O` (stereo partly shown) [3-O-glyceryl ascorbic acid, reference compound], the Collagen production-promoting effect result in data set [5] is on record as “+ (100-140%)”. The “Antioxidant effect (ROS production inhibition rate)” value in data set [2] is recorded as “+ (<20%)”.

`O=C1O[C@H]([C@@H](O)CO)C(O)=C1OCC(O)CO` (stereo partly shown) [2-O-glyceryl ascorbic acid, reference compound]: in data set [5], the Collagen production-promoting effect result was “+ (100-140%)”. For the same molecule, the “Antioxidant effect (ROS production inhibition rate)” value in data set [2] is recorded as “+ (<20%)”.
